According to patent US20250375467A1, “SUSTAINED RELEASE SILICA HYDROGEL COMPOSITES FOR TREATING OPHTHALMOLOGICAL CONDITIONS AND METHODS OF USING SAME” (ASTELLAS US LLC, priority 2022, published 2025):

Set-up: species or system Dutch belted (DB) rabbit
Conditions: rabbit, in vivo
Protocol: The composite formulation (using formulation #11 CSTR-3) prepared as described in Examples 2 and 3, whose in vitro release profile is shown in FIG. 8A and FIG. 8B, was evaluated for ACP release and tissue exposure following IVT administration in the Dutch belted (DB) rabbit. The study design includes bilateral intravitreal dosing of 1.0 mg oligo equivalent in a 50 μL dosing volume of silica composite PK formulation. Two rabbits (4 eyes) were collected at each of the following time points, day 1, 3, 7, 14, 28, 42, 56, and 84. Eyes were dissected, and vitreous humor, retina, and retinal pigment epithelium (RPE)/choroid were collected for tissue specific bioanalytical analysis employing a qualified dual-hybridization assay. The ocular PK (pharmacokinetics) is summarized in FIG. 9 for liquid formulation administered as an IVT bolus dose for vitreous humor and retina tissues as comparator to the sustained release depot PK formulation. The ocular tissue PK for the PK formulation is provided as solid lines for vitreous humor (top line), retina (middle line) and RPE/choroid (bottom line).
At study termination (day 84), the remaining PK formulation depot was recovered from the vitreous humor by centrifugation and analyzed for remaining silica by microwave plasma atomic emission spectroscopy (MP-AES) method and avacincaptad pegol content by a qualified HPLC assay method. […]

Substance: avacincaptad pegol [ACP]
- terminal half-life: 91.2 h
